This note sets out measurements from patent US20250206732A1, “COMPOUNDS AND METHODS FOR THE TARGETED DEGRADATION OF KRAS” (Arvinas Operations, Inc., priority 2022, published 2025).

A value given as a limit tells only on which side of the number the result lay.

The test addresses T1, AsPC-1 HiBiT-KRASG12D (Homo sapiens, UniProt P01116, G12D).
T1 construct: insert the HiBiT tag onto the N-terminus of one or more of the endogenous KRAS alleles; endogenous in cells; host or cells: AsPC-1 (ATCC CRL-1682), CRISPR-Cas9 knock-in clone, one tagged allele
Put plainly: HiBiT degradation assay (G12D), AsPC-1 HiBiT-KRASG12D cells. The format is cell-based. Conditions: 24 hours treatment; for Dmax: ASPC1, AsPC-1 HiBiT-KRASG12D cells, maximum degradation observed; for DC50: AsPC-1 HiBiT-KRASG12D cells, HiBiT luminescence. The text has this:
Reagents. […] SW1573 cells are homozygous for the G12C mutation in KRAS, AsPC-1 cells are homozygous for the G12D mutation, and SW620 cells are homozygous for the G12V mutation. […] For degradation assays, 384 well plates were used. Alamar blue was purchased from ThermoFisher scientific (A50101) and used according to manufacturer instructions. The Nano-Glo® HiBiT Lytic Detection System and Nano-Glo® HiBiT Blotting System were purchased from Promega (#N3050 and #N2410) and used according to manufacturer instructions.
To create the AsPC-1 HiBiT-KRASG12D cell line, CRISPR-Cas9 was used to insert the HiBiT tag onto the N-terminus of one or more of the endogenous KRAS alleles. […] After knock-in of the tag, individual clones were isolated by single cell dilution and screened for HiBiT insertion by PCR. […] This clone was used in further studies.
HiBiT degradation assays (G12C and G12D). […] All assays were performed in triplicate. Cells were treated with compounds for 24 hours at 37° C. in an incubator containing 5% CO2. Following treatment, alamar blue was used to determine if any compounds led to a loss in cell viability after 24 hours. The 10× alamar blue reagent was added to a final concentration of 1× as recommended by the manufacturer and cells were returned to the incubator for 4 hours. Plates were then allowed to equilibrate to room temperature and fluorescence was measured using a Perkin-Elmer EnVision. After completion of the fluorescence read, the liquid from each well was removed and the cells were washed with PBS. The Nano-Glo® HiBiT detection reagent was prepared according to the manufacturer's instructions and added to each well after the PBS wash was removed. Following incubation at room temperature for 45 minutes, the luminescence was read using the ultra-sensitive luminescence aperture on the Envision instrument.
Data analysis. Fluorescence values from the alamar blue treatment were normalized to the DMSO-only control for each compound titration.

T1 sequence (P01116 1-188 isoform P01116-2 G12D): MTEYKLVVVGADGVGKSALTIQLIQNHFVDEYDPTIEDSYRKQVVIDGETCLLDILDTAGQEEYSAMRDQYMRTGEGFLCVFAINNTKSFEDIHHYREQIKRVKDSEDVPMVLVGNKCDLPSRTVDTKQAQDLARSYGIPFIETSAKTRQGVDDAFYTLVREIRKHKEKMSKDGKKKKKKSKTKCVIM

For the molecule `CCc1cccc2cc(O)cc(-c3ncc4c(N5CC6CCC(C5)N6)nc(OCCN5CC[C@@H]6[C@@H](CCN6c6cc([C@@H](C(=O)N7C[C@H](O)C[C@H]7C(=O)N[C@@H](C)c7ccc(-c8scnc8C)cc7)C(C)C)on6)C5)nc4c3F)c12` (relative stereo) [Compound 76, (2S,4R)-1-[(2R*)-2-{3-[(3aR**,7aR***)-5-{2-[(4-{3,8-diazabicyclo[3.2.1]octan-3-yl}-7-(8-ethyl-3-hydroxynaphthalen-1-yl)-8-fluoropyrido[4,3-d]pyrimidin-2-yl)oxy]ethyl}-octahydro-1H-pyrrolo[3,2-c]pyridin-1-yl]-1,2-oxazol-5-yl}-3-methylbutanoyl]-4-hydroxy-N-[(1S)-1-[4-(4-methyl-1,3-thiazol-5-yl)phenyl]ethyl]pyrrolidine-2-carboxamide], the Dmax fell in the range of 20 to 60% and the DC50 lay in the range of 1 to 3 µM.
Taken in the same sequence, the figures for `CCc1cccc2cc(O)cc(-c3ncc4c(N5CC6CCC(C5)N6)nc(OCCN5C[C@@H]6CN(c7cc([C@H](C(=O)N8C[C@H](O)C[C@H]8C(=O)N[C@@H](C)c8ccc(-c9scnc9C)cc8)C(C)C)on7)C[C@H]6C5)nc4c3F)c12` (relative stereo) [Compound 77, (2S,4R)-1-[(2R*)-2-{3-[(3aR,6aR)-5-{2-[(4-{3,8-diazabicyclo[3.2.1]octan-3-yl}-7-(8-ethyl-3-hydroxynaphthalen-1-yl)-8-fluoropyrido[4,3-d]pyrimidin-2-yl)oxy]ethyl}-octahydropyrrolo[3,4-c]pyrrol-2-yl]-1,2-oxazol-5-yl}-3-methylbutanoyl]-4-hydroxy-N-[(1S)-1-[4-(4-methyl-1,3-thiazol-5-yl)phenyl]ethyl]pyrrolidine-2-carboxamide] were 80 to 100% and < 0.6 µM.
For `CCc1cccc2cc(O)cc(-c3ncc4c(N5CC6CCC(C5)N6)nc(OCCN5C[C@@H]6CN(c7cc([C@@H](C(=O)N8C[C@H](O)C[C@H]8C(=O)N[C@@H](C)c8ccc(-c9scnc9C)cc8)C(C)C)on7)C[C@H]6C5)nc4c3F)c12` (relative stereo) [Compound 78, (2S,4R)-1-[(2R*)-2-{3-[(3aR,6aR)-5-{2-[(4-{3,8-diazabicyclo[3.2.1]octan-3-yl}-7-(8-ethyl-3-hydroxynaphthalen-1-yl)-8-fluoropyrido[4,3-d]pyrimidin-2-yl)oxy]ethyl}-octahydropyrrolo[3,4-c]pyrrol-2-yl]-1,2-oxazol-5-yl}-3-methylbutanoyl]-4-hydroxy-N-[(1S)-1-[4-(4-methyl-1,3-thiazol-5-yl)phenyl]ethyl]pyrrolidine-2-carboxamide], in that order: 20 to 60% and 1 to 3 µM.
For `CCc1cccc2cc(O)cc(-c3ncc4c(N5CC6CCC(C5)N6)nc(OCCN5C[C@@H]6CN(c7cc(C(C(=O)N8C[C@H](O)C[C@H]8C(=O)N[C@@H](C)c8ccc(-c9scnc9C)cc8)C(C)C)on7)C[C@@H]6C5)nc4c3F)c12` (relative stereo) [Compound 80, (2S,4R)-1-[(2R*)-2-{3-[(3aR,6aS)-5-{2-[(4-{3,8-diazabicyclo[3.2.1]octan-3-yl}-7-(8-ethyl-3-hydroxynaphthalen-1-yl)-8-fluoropyrido[4,3-d]pyrimidin-2-yl)oxy]ethyl}-octahydropyrrolo[3,4-c]pyrrol-2-yl]-1,2-oxazol-5-yl}-3-methylbutanoyl]-4-hydroxy-N-[(1S)-1-[4-(4-methyl-1,3-thiazol-5-yl)phenyl]ethyl]pyrrolidine-2-carboxamide], in that order: 80 to 100% and < 0.6 µM.
`CCc1cccc2cc(O)cc(-c3ncc4c(N5CC6CCC(C5)N6)nc(OCCN5CCC(CC6CN(c7cc(C(C(=O)N8C[C@H](O)C[C@H]8C(=O)N[C@@H](C)c8ccc(-c9scnc9C)cc8)C(C)C)on7)C6)CC5)nc4c3F)c12` (relative stereo) [Compound 82, (2S,4R)-1-[(2R*)-2-(3-{3-[(1-{2-[(4-{3,8-diazabicyclo[3.2.1]octan-3-yl}-7-(8-ethyl-3-hydroxynaphthalen-1-yl)-8-fluoropyrido[4,3-d]pyrimidin-2-yl)oxy]ethyl}piperidin-4-yl)methyl]azetidin-1-yl}-1,2-oxazol-5-yl)-3-methylbutanoyl]-4-hydroxy-N-[(1S)-1-[4-(4-methyl-1,3-thiazol-5-yl)phenyl]ethyl]pyrrolidine-2-carboxamide] came in with a Dmax of 20 to 60% and a DC50 of 0.6 to 1 µM.
Taken in the same sequence, the figures for `C#Cc1c(F)ccc2cc(O)cc(-c3ncc4c(N5CC6CCC(C5)N6)nc(OCCN5CCC6(CC5)CN(c5cc([C@@H](C(=O)N7C[C@H](O)C[C@H]7C(=O)N[C@@H](C)c7ccc(-c8ccnn8C)cc7)C(C)C)on5)C6)nc4c3F)c12` (relative stereo) [Compound 84, (2S,4R)-1-[(2R*)-2-[3-(7-{2-[(4-{3,8-diazabicyclo[3.2.1]octan-3-yl}-7-(8-ethynyl-7-fluoro-3-hydroxynaphthalen-1-yl)-8-fluoropyrido[4,3-d]pyrimidin-2-yl)oxy]ethyl}-2,7-diazaspiro[3.5]nonan-2-yl)-1,2-oxazol-5-yl]-3-methylbutanoyl]-4-hydroxy-N-[(1S)-1-[4-(1-methyl-1H-pyrazol-5-yl)phenyl]ethyl]pyrrolidine-2-carboxamide] were 60 to 80% and 1 to 3 µM.
For `C#Cc1c(F)ccc2cc(O)cc(-c3ncc4c(N5CC6CCC(C5)N6)nc(OCCN5CCC(COc6cc([C@H](C(=O)N7C[C@H](O)C[C@H]7C(=O)N[C@@H](C)c7ccc(-c8ccnn8C)cc7)C(C)C)on6)CC5)nc4c3F)c12` (relative stereo) [Compound 85, (2S,4R)-1-[(2R*)-2-{3-[(1-{2-[(4-{3,8-diazabicyclo[3.2.1]octan-3-yl}-7-(8-ethynyl-7-fluoro-3-hydroxynaphthalen-1-yl)-8-fluoropyrido[4,3-d]pyrimidin-2-yl)oxy]ethyl}piperidin-4-yl)methoxy]-1,2-oxazol-5-yl}-3-methylbutanoyl]-4-hydroxy-N-[(1S)-1-[4-(1-methyl-1H-pyrazol-5-yl)phenyl]ethyl]pyrrolidine-2-carboxamide], in that order: 80 to 100% and < 0.6 µM.
Taken in the same sequence, the figures for `C#Cc1c(F)ccc2cc(O)cc(-c3ncc4c(N5CC6CCC(C5)N6)nc(OCCN5CCC(COc6cc([C@@H](C(=O)N7C[C@H](O)C[C@H]7C(=O)N[C@@H](C)c7ccc(-c8ccnn8C)cc7)C(C)C)on6)CC5)nc4c3F)c12` (relative stereo) [Compound 86, (2S,4R)-1-[(2R*)-2-{3-[(1-{2-[(4-{3,8-diazabicyclo[3.2.1]octan-3-yl}-7-(8-ethynyl-7-fluoro-3-hydroxynaphthalen-1-yl)-8-fluoropyrido[4,3-d]pyrimidin-2-yl)oxy]ethyl}piperidin-4-yl)methoxy]-1,2-oxazol-5-yl}-3-methylbutanoyl]-4-hydroxy-N-[(1S)-1-[4-(1-methyl-1H-pyrazol-5-yl)phenyl]ethyl]pyrrolidine-2-carboxamide] were 80 to 100% and 1 to 3 µM.
As to `CCc1cccc2cc(O)cc(-c3ncc4c(N5CC6CCC(C5)N6)nc(OCCN5CCC6(CC5)CN(c5cc([C@H](C(=O)N7C[C@H](O)C[C@H]7C(=O)NCc7ccc(-c8scnc8C)cc7)C(C)C)on5)C6)nc4c3F)c12` (relative stereo) [Compound 98, (2S,4R)-1-[(2R*)-2-[3-(7-{2-[(4-{3,8-diazabicyclo[3.2.1]octan-3-yl}-7-(8-ethyl-3-hydroxynaphthalen-1-yl)-8-fluoropyrido[4,3-d]pyrimidin-2-yl)oxy]ethyl}-2,7-diazaspiro[3.5]nonan-2-yl)-1,2-oxazol-5-yl]-3-methylbutanoyl]-4-hydroxy-N-{[4-(4-methyl-1,3-thiazol-5-yl)phenyl]methyl}pyrrolidine-2-carboxamide], the Dmax was in the range of 80 to 100% and the DC50 is < 0.6 µM.
Taken in the same sequence, the figures for `CCc1cccc2cc(O)cc(-c3ncc4c(N5CC6CCC(C5)N6)nc(OCCN5CCC6(CC5)CN(c5cc([C@@H](C(=O)N7C[C@H](O)C[C@H]7C(=O)NCc7ccc(-c8scnc8C)cc7)C(C)C)on5)C6)nc4c3F)c12` (relative stereo) [Compound 99, (2S,4R)-1-[(2R*)-2-[3-(7-{2-[(4-{3,8-diazabicyclo[3.2.1]octan-3-yl}-7-(8-ethyl-3-hydroxynaphthalen-1-yl)-8-fluoropyrido[4,3-d]pyrimidin-2-yl)oxy]ethyl}-2,7-diazaspiro[3.5]nonan-2-yl)-1,2-oxazol-5-yl]-3-methylbutanoyl]-4-hydroxy-N-{[4-(4-methyl-1,3-thiazol-5-yl)phenyl]methyl}pyrrolidine-2-carboxamide] were 20 to 60% and > 3 µM.
